{
  "source": "paper PMC8351955",
  "about": "“Targeting Mycobacterium tuberculosis response to environmental cues for the development of effective antitubercular drugs” (PLoS Biology, 2021)",
  "key": {"[1]": {"tested_on": "CDC1551(rv2390c′::GFP) reporter Mtb strain, response to high [Cl−]", "assay": "microbe, parasite or virus in culture", "format": "cell-based, Mycobacterium tuberculosis"}, "[2]": {"tested_on": "Mtb growth in J774 murine macrophage-like cells", "assay": "microbe, parasite or virus in culture", "format": "cell-based, Mycobacterium tuberculosis", "settings": "for NPI (Mtb growth in J774 cells), average: Fig 1F"}, "[3]": {"assay": "Human liver microsomal stability", "format": "in vitro ADME", "settings": "human liver microsomes; read-out: half-life (t1/2) in human liver microsomes"}, "[4]": {"assay": "Pharmacokinetic assay, single oral dose in CD-1 mice", "format": "in vivo", "settings": "female; for AUC(0-t): mouse, plasma, CD-1 mice, read-out: plasma AUC0–5h", "experimental": "Blood samples were collected in K2EDTA-coated tubes predose, 0.5, 1, 3, and 5 hours post-dose, placed on ice, and centrifuged to recover plasma. The recovered plasma was kept at −80°C as needed prior to analysis, which was performed as previously described. In brief, a Sciex Applied Biosystems Qtrap 4000 triple-quadrupole mass spectrometer coupled to an Agilent 1260 HPLC system was used for HPLC coupled to tandem mass spectrometry (LC–MS/MS) quantitative analysis of the samples, with chromatography attained using an Agilent Zorbax SB-C8 column (2.1 × 30 mm; particle size, 3.5 μm) and a reverse-phase gradient elution. The aqueous mobile phase consisted of Milli-Q deionized water with 0.1% formic acid (A), while the organic mobile phase was 0.1% formic acid in acetonitrile (B). The gradient setup was as follows: 5% to 90% B over 2 minutes, 1 minute at 90% B, then an immediate drop to 5% B and an additional 1 minute at 5% B. Quantification of molecules was carried out via multiple reaction monitoring of parent/daughter transitions in electrospray positive ionization mode, and sample analyses accepted if quality control and standard samples had concentrations within 20% of the nominal concentration. Preparation of compounds for generation of standard curves and quality control spiking solutions were performed as previously described. Data were processed using Analyst software (Version 1.6.2; Applied Biosystems Sciex, Framingham, MA)."}, "[5]": {"assay": "Vero cell toxicity assay (MTS)", "format": "cell-based", "settings": "African green monkey, Vero cells", "experimental": "Vero cells (African green monkey kidney epithelial cells; ATCC CCL-81) were maintained in DMEM + 10% FBS. For the cell toxicity assay, Vero cells were plated at 1 × 10^5 cells/well in a 96-well plate and incubated for 2 to 3 hours to allow cells to settle. The test compound was dissolved in DMSO at a final concentration of 12 mg/ml. The test compound solution was then added to plated cells, resulting in final test concentrations of 50 to 0.78 μg/ml, with each concentration tested at least in duplicate. To evaluate […] cell viability, 20 μl of a 1:20 MTS:PMS reagent (Promega CellTiter 96 AQueous nonradioactive cell proliferation assay kit) was added to each well after 72 hours of incubation at 37°C, and the plate then incubated for an additional 3 hours. Absorbance at 490 nm was read on a Molecular Devices SpectraMax M5 microplate reader. The CC50 (the minimal amount of compound that inhibited Vero cell growth by 50%) was extrapolated by plotting absorbance at 490 nm versus the concentration […]."}, "[6]": {"assay": "Mouse plasma protein binding", "format": "in vitro ADME", "quoted_text": "(§1) Assays examining mouse and human liver microsomal stability, kinetic aqueous solubility, mouse and human plasma protein binding and stability, and human cytochrome P450 inhibition characteristics of the compounds were run by BioDuro (San Diego, CA), using standard protocols as previously described [37]. hERG inhibition assays were also performed by BioDuro."}, "Human plasma stability": {"assay": "Human plasma stability", "format": "in vitro ADME", "settings": "5-h incubation", "quoted_text": "as §1"}, "CYP1A2": {"target": "T1, CYP1A2 (Homo sapiens, UniProt P05177)", "T1 sequence (P05177 1-516)": "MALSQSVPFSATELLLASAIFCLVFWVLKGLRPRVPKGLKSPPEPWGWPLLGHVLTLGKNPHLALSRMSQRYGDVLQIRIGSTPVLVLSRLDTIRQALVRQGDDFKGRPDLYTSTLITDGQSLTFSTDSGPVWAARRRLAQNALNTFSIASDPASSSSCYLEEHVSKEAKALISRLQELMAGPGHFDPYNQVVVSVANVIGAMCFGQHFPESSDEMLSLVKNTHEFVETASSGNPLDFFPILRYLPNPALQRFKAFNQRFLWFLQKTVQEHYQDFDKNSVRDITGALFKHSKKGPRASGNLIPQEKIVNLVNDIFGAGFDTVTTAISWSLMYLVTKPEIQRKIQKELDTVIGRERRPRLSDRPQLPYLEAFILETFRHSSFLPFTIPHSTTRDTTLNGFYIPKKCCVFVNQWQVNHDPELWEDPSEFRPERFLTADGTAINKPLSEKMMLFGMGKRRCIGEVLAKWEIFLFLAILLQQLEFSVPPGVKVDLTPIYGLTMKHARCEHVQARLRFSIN", "assay": "Human cytochrome P450 inhibition, 1A2", "format": "in vitro ADME", "settings": "read-out: % inhibition of CYP 1A2", "quoted_text": "as §1"}, "CYP3A4/5": {"tested_on": "CYP3A4/5", "assay": "Human cytochrome P450 inhibition, 3A4/5", "format": "in vitro ADME", "settings": "read-out: % inhibition of CYP 3A4/5"}, "[7]": {"tested_on": "Mtb growth in cholesterol media", "parameters": "method as in PubChem AID 1259343", "settings": "ref PubChem AID 1259343; cited from earlier work"}, "Mtb": {"tested_on": "Mtb", "assay": "Mtb growth assay in standard 7H9 medium (OD600)", "settings": "for OD600: Fig. 2F", "text": "Bacterial growth was tracked by measuring OD600 every 3 days for 12 days. […] Bacterial growth was tracked by measurement of OD600 every 3 days over 12 days."}},
  "note": "Where “and” joins values, the source holds several entries; their conditions need not be identical. Identical values can stand only once. Like-named read-outs stand apart in the source and are kept apart here.",
  "data": [
    {"smiles": "CCSc1ncc(CN2CCN(c3nc4ccccc4o3)CC2)cn1", "note": "[C6, 2-(4-((2-(ethylthio)pyrimidin-5-yl)methyl)piperazin-1-yl)benzo[d]oxazole]", "values": [
      {"measurement": "NPA - rv2390c'::GFP, average", "setting": "[1]; 0.0390625 µM, Fig 1C", "value": 83.3, "unit": "%"},
      {"measurement": "NPA - rv2390c'::GFP, average", "setting": "[1]; 0.078125 µM, Fig 1C", "value": 86.0333, "unit": "%"},
      {"measurement": "NPA - rv2390c'::GFP, average", "setting": "[1]; 0.15625 µM, Fig 1C", "value": 80.7667, "unit": "%"},
      {"measurement": "NPA - rv2390c'::GFP, average", "setting": "[1]; 0.3125 µM, Fig 1C", "value": 92.0333, "unit": "%"},
      {"measurement": "NPA - rv2390c'::GFP, average", "setting": "[1]; 0.625 µM, Fig 1C", "value": 91.4667, "unit": "%"},
      {"measurement": "NPA - rv2390c'::GFP, average", "setting": "[1]; 1.25 µM, Fig 1C", "value": 105.667, "unit": "%"},
      {"measurement": "NPA - rv2390c'::GFP, average", "setting": "[1]; 2.5 µM, Fig 1C", "value": 116.333, "unit": "%"},
      {"measurement": "NPA - rv2390c'::GFP, average", "setting": "[1]; 5 µM, Fig 1C", "value": 113, "unit": "%"},
      {"measurement": "NPA - rv2390c'::GFP, average", "setting": "[1]; 10 µM, Fig 1C", "value": 126.667, "unit": "%"},
      {"measurement": "NPA - rv2390c'::GFP, average", "setting": "[1]; 20 µM, Fig 1C", "value": 131, "unit": "%"},
      {"measurement": "activity at 10 µM", "setting": "[1]; Mycobacterium tuberculosis, 144 h, pH 6.4, […], DMSO positive control = 100%, read-out: Primary screen rv2390c'::GFP NPA%", "value": 164, "unit": "%"},
      {"measurement": "activity at 10 µM", "setting": "[1]; Mycobacterium tuberculosis, 144 h, 10 µM, pH 6.4, 250 mM NaCl, 6 days, read-out: rv2390c'::GFP validation assay NPA% at 10 µM compound", "value": "127 ± 1.5", "unit": "%"},
      {"measurement": "activity at 20 µM", "setting": "[1]; Mycobacterium tuberculosis, 144 h, 20 µM, pH 6.4, 250 mM NaCl, 6 days, read-out: rv2390c'::GFP validation assay NPA% at 20 µM compound", "value": "131 ± 3.6", "unit": "%"},
      {"measurement": "AC50", "setting": "[1]; Mycobacterium tuberculosis, 144 h, pH 6.4, 250 mM NaCl, 6 days, Fig 1C, read-out: AC50 (activatory concentration, 50%), rv2390c′::GFP", "value": 1800, "unit": "nM"},
      {"measurement": "NPI (Mtb growth in J774 cells), average", "setting": "[2]; 0.078125 µM, 5 µM rifampicin = 100% inhibition", "value": -7.09, "unit": "%"},
      {"measurement": "NPI (Mtb growth in J774 cells), average", "setting": "[2]; 0.15625 µM", "value": -2.13, "unit": "%"},
      {"measurement": "NPI (Mtb growth in J774 cells), average", "setting": "[2]; 0.3125 µM", "value": -0.93, "unit": "%"},
      {"measurement": "NPI (Mtb growth in J774 cells), average", "setting": "[2]; 0.625 µM", "value": -0.1, "unit": "%"},
      {"measurement": "NPI (Mtb growth in J774 cells), average", "setting": "[2]; 1.25 µM", "value": 17.45, "unit": "%"},
      {"measurement": "NPI (Mtb growth in J774 cells), average", "setting": "[2]; 2.5 µM", "value": 26.3, "unit": "%"},
      {"measurement": "NPI (Mtb growth in J774 cells), average", "setting": "[2]; 5 µM", "value": 38, "unit": "%"},
      {"measurement": "NPI (Mtb growth in J774 cells), average", "setting": "[2]; 10 µM", "value": 40.45, "unit": "%"},
      {"measurement": "NPI (Mtb growth in J774 cells), average", "setting": "[2]; 20 µM", "value": 53.6, "unit": "%"},
      {"measurement": "inhibition at 10 µM", "setting": "[2]; Mycobacterium tuberculosis, J774, 144 h, read-out: J774 tertiary assay % inhibition compared to Rif at 10 µM compound", "value": "40.5 ± 0.6", "unit": "%"},
      {"measurement": "inhibition at 20 µM", "setting": "[2]; Mycobacterium tuberculosis, J774, 144 h, read-out: J774 tertiary assay % inhibition compared to Rif at 20 µM compound", "value": "53.6 ± 2.7", "unit": "%"},
      {"measurement": "half-life", "setting": "[3]", "value": 37.6, "unit": "min"},
      {"measurement": "Kp at 5 h", "setting": "[4]; CD-1, mouse, 5-hour partitioning between plasma and lung, 25 mg/kg po, read-out: Clung/Cplasma", "value": 0.86},
      {"measurement": "AUC(0-t)", "setting": "[4]; single 5 mg/kg po dose", "value": 5480, "unit": "ng·h/mL"},
      {"measurement": "AUC(0-t)", "setting": "[4]; single 25 mg/kg po dose", "value": 25700, "unit": "ng·h/mL"},
      {"measurement": "CC50 at 72 h", "setting": "[5]", "value": "> 50", "unit": "µg/mL"},
      {"measurement": "fraction unbound", "setting": "[6]", "value": 0.03},
      {"measurement": "remaining at 5 h", "setting": "Human plasma stability", "value": 94.6, "unit": "%"},
      {"measurement": "inhibition at 10 µM", "setting": "CYP1A2", "value": "< 1", "unit": "%"},
      {"measurement": "inhibition at 10 µM", "setting": "CYP3A4/5", "value": "< 1", "unit": "%"},
      {"measurement": "Call in screen for inhibition of Mtb growth in cholesterol media", "setting": "[7]", "value": "positive for growth inhibition"},
      {"measurement": "Effect on Mtb growth in standard 7H9 media", "setting": "Mtb; 10 μM, OD600 over 12 days", "value": "no effect"},
      {"measurement": "OD600", "setting": "Mtb; day 3, average", "value": 0.1933},
      {"measurement": "OD600", "setting": "Mtb; day 3, individual replicates", "value": "0.2 (2×) and 0.18"},
      {"measurement": "OD600", "setting": "Mtb; day 6, average", "value": 0.3733},
      {"measurement": "OD600", "setting": "Mtb; day 6, individual replicates", "value": "0.38 (2×) and 0.36"},
      {"measurement": "OD600", "setting": "Mtb; day 9, average", "value": 0.4933},
      {"measurement": "OD600", "setting": "Mtb; day 9, individual replicates", "value": "0.5 (2×) and 0.48"},
      {"measurement": "OD600", "setting": "Mtb; day 12, average", "value": 0.6333},
      {"measurement": "OD600", "setting": "Mtb; day 12, individual replicates", "value": "0.64 (2×) and 0.62"}
    ]}
  ]
}
